By EC50 is commonly meant the concentration giving half of the maximal effect. A lower EC50 goes with an effect from little substance.

In this test the test system is NCI-H2122. Put plainly: Cytotoxicity against human NCI-H2122 cells incubated for 4 days. The format is functional, cell-based. The note with it: NCI-H2122, 96 h.

Molecules are shown by their SMILES.

`COc1ccc(CCNC(=O)C(=O)Nc2ccc(OC)c(C)c2)cc1` showed an EC50 of 0.81 µM.
For the molecule `COc1ccc(CCNC(=O)C(=O)Nc2ccc(Cl)cn2)cc1`, a half-maximal response (EC50) required 0.35 µM.
Turning to `O=C(NCCc1ccc(Br)cc1)C(=O)Nc1ccc(Cl)cc1`, the EC50 is over 50 µM.
With `COc1ccc(CCNC(=O)C(=O)Nc2ccc(Br)cn2)cc1` the figure was 0.29 µM; with `COc1ccc(CCNC(=O)NC(=O)c2ccc(C(=O)c3ccccc3)cc2)cc1`, 0.11 µM.
Molecule `COc1ccc(CCNC(=O)C(=O)Nc2ccc(C(=O)c3ccccc3)cc2)cc1` displayed an EC50 of 0.085 µM.
As for `COc1ccc(CCNC(=O)C(=O)Nc2cccc(C#N)c2)cc1`, the response was half-maximal at 0.41 µM (EC50). Against the preceding molecule, the EC50 is about 4.8-fold higher.
With `CCOc1ccc(CCNC(=O)C(=O)Nc2ccc(Cl)cc2)cc1`, the EC50 is over 50 µM.
On to `COc1ccc(CCNC(=O)C(=O)N2Cc3ccccc3C2)cc1`, for which the EC50 is over 50 µM.
The molecule `COc1ccc(CCNC(=O)NC(=O)c2cccc(-c3ccccc3)c2)cc1` had a concentration for a half-maximal effect (EC50) of over 50 µM.
The molecule `COc1ccc(CCNC(=O)C(=O)N2CCCCC2)cc1` had a concentration giving a half-maximal response (EC50) of over 50 µM.
As for `O=C(NCCc1ccc(Cl)cc1)C(=O)Nc1ccc(Cl)cc1`, the 50% effective concentration (EC50) was over 50 µM.
Under `COc1ccc(CCNC(=O)NC(=O)c2ccc(C(O)c3ccccc3)cc2)cc1` (stereo not given) stands 0.097 µM.
`COc1ccc(CCNC(=O)C(=O)NC2CCCCC2)cc1` had an EC50 of over 50 µM.
Under `COc1ccc(CCNC(=O)C(=O)Nc2ccc(Cl)nc2)cc1` stands 0.44 µM; under `COc1ccc(CCNC(=O)NC(=O)c2ccc(C(=O)N3CCCCC3)cc2)cc1`, 2.3 µM.
With `O=C(NCCc1cccc(O)c1)C(=O)Nc1ccc(Cl)cc1` the figure was 2.4 µM; with `CCOc1cccc(NC(=O)C(=O)NCCc2ccc(OC)cc2)c1`, 24 µM; with `COc1ccc(CCNC(=O)C(=O)Nc2ccc(F)cc2)cc1`, 0.29 µM.
The molecule `COc1ccc(CCNC(=O)C(=O)Nc2cccc(F)n2)cc1` yielded an EC50 of over 50 µM.
Turning to `COc1ccc(CCNC(=O)NC(=O)c2ccc(C(=O)c3ccccc3C)cc2)cc1`, the concentration for a half-maximal effect (EC50) was 0.32 µM.
The molecule `COc1ccc(CCNC(=O)C(=O)NCCc2ccc(OC)cc2)cc1` displayed a concentration for a half-maximal effect (EC50) of over 50 µM.
Regarding `COc1ccc(CCNC(=O)Nc2ccc(Cl)cc2)cc1`, the 50% effective concentration (EC50) is over 50 µM.
The molecule `COc1ccc(CCNC(=O)C(=O)Nc2cncc(C)c2)cc1` returned a half-maximal effective concentration (EC50) of 2.6 µM.
In turn, `COc1ccc(CCNC(=O)NC(=O)c2ccc(OC)cc2)cc1` returned an EC50 of 1 µM.
As to `COc1ccc(CCNC(=O)C(=O)Nc2cnccn2)cc1`, the EC50 was over 50 µM.
For the molecule `COc1ccc(CCNC(=O)NC(=O)c2ccc(-c3ccccc3)cc2)cc1`, a half-maximal response (EC50) required 0.17 µM.
In the case of `COc1ccc(CCNC(=O)NC(=O)c2ccc(OCc3ccccc3)cc2)cc1`, the concentration giving a half-maximal response (EC50) was found to be 0.031 µM.
As for `COc1ccc(CCNC(=O)C(=O)NC2CCCC2)cc1`, the EC50 was over 50 µM.
Under `COc1ccc(CCNC(=O)C(=O)Nc2ccccn2)cc1` stands over 50 µM; under `COc1ccc(CCNC(=O)C(=O)Nc2ccccc2OC)cc1`, over 50 µM.
Turning to `COc1ccc(CCNC(=O)NC(=O)c2ccc(C(=O)O)cc2)cc1`, the 50% effective concentration (EC50) is over 50 µM.
The molecule `COc1ccc(CCNC(=O)C(=O)Nc2ccc(Cl)c(C(F)(F)F)c2)cc1` registered an EC50 of 1.4 µM.
Under `COC(=O)c1ccc(C(=O)NC(=O)NCCc2ccc(OC)cc2)cc1` stands over 50 µM; under `COc1ccc(CCNC(=O)C(=O)Nc2ccc(C#N)cc2)cc1`, 0.71 µM.
Molecule `COc1ccc(CCNC(=O)C(=O)Nc2ccc(C)c(OC)c2)cc1` had an EC50 of over 50 µM.
Under `COc1ccc(CCNC(=O)C(=O)Nc2cccnc2F)cc1` stands over 50 µM; under `O=C(NCCc1ccccc1)C(=O)Nc1ccc(Cl)cc1`, over 50 µM; under `COc1ccc(CCNC(=O)C(=O)Nc2cccc(Br)n2)cc1`, over 50 µM.
`COc1ccc(CCNC(=O)C(=O)Nc2ccc(Cl)c(Cl)c2)cc1` registered a concentration giving a half-maximal response (EC50) of 0.49 µM.
Take `COc1ccc(CCNC(=O)c2nc3ccccc3c(=O)[nH]2)cc1`: the concentration for a half-maximal effect (EC50) was over 50 µM.
In the case of `O=C(NCCc1ccc(F)cc1)C(=O)Nc1ccc(Cl)cc1`, a half-maximal effect (EC50) was put at 48 µM.
In the case of `COc1ccc(CCNC(=O)C(=O)Nc2ccc(Cl)c(F)c2)cc1`, the concentration giving a half-maximal response (EC50) turned out to be 0.29 µM.
Consider `COc1ccc(CCNC(=O)C(=O)N2CCc3ccccc3C2)cc1`, for which the concentration for a half-maximal effect (EC50) was over 50 µM.
With `COc1ccc(CCNC(=O)C(=O)NC2CCCCCC2)cc1` the figure was over 50 µM; with `COc1ccc(CCNC(=O)C(=O)Nc2ccc(Cl)c(C#N)c2)cc1`, 0.4 µM; with `COc1ccc(CCNC(=O)c2nc3ccccc3[nH]2)cc1`, over 50 µM.
`O=C(NCCc1ccccc1O)C(=O)Nc1ccc(Cl)cc1` displayed a 50% effective concentration (EC50) of 1.72 µM. This lies in the single-digit micromolar range.
With `Cc1ccc(CCNC(=O)C(=O)Nc2ccc(Cl)cc2)cc1`, the half-maximal effective concentration (EC50) is over 50 µM.
With `COc1cccc(CCNC(=O)C(=O)Nc2ccc(Cl)cc2)c1` the figure was over 50 µM; with `COc1ccc(CCNC(=O)C(=O)Nc2ccccc2Br)cc1`, over 50 µM; with `COc1ccc(CCNC(=O)C(=O)Nc2ccccc2F)cc1`, over 50 µM.
As to `COc1ccc(CCN(C)C(=O)C(=O)Nc2ccc(Cl)cc2)cc1`, the EC50 worked out at 10.5 µM.
Under `COc1ccc(CCNC(=O)C(=O)Nc2ccc(Cl)cc2)cc1OC` stands over 50 µM; under `COc1ccc(CCNC(=O)C(=O)Nc2cc(F)cc(Cl)c2)cc1`, over 50 µM.
In turn, `COc1ccc(CCNC(=O)c2ccc3cccc(O)c3n2)cc1` gave an EC50 of 30 µM.
Turning to `COc1ccc(CCNC(=O)C(=O)Nc2ccc(Cl)c([N+](=O)[O-])c2)cc1`, the concentration giving a half-maximal response (EC50) was determined as 1.3 µM.
As for `COc1ccc(CCNC(=O)C(=O)Nc2cccc(Cl)c2)cc1`, the EC50 was 0.38 µM. This EC50 lies about 3.4-fold lower than the previous one.
As to `COc1ccc(CCNC(=O)C(=O)NCc2ccc(Cl)cc2)cc1`, the EC50 was over 50 µM.
Molecule `COc1ccc(CCNC(=O)c2ccc3ccccc3c2O)cc1` registered a half-maximal effective concentration (EC50) of 36 µM.
Take `COc1ccc(CCNC(=O)C(=O)Nc2cc(Cl)cc(C(F)(F)F)c2)cc1`: the EC50 was over 50 µM.
The molecule `COc1ccc(CCN(C)C(=O)N(C)C(=O)c2ccc(C(=O)c3ccccc3)cc2)cc1` registered an EC50 of 16 µM.
On to `COc1ccc(CCNC(=O)C(=O)Nc2cnccc2C)cc1`, for which the concentration for a half-maximal effect (EC50) was over 50 µM.
Molecule `COc1ccc(CCCNC(=O)c2ccc(Cl)cc2)cc1` registered an EC50 of over 50 µM.
`COc1ccc(CCNC(=O)C(=O)N2CCc3ccccc32)cc1` returned an EC50 of over 50 µM.
Molecule `COc1ccc(CCNC(=O)NC(=O)c2ccc(Cl)cc2)cc1` had an EC50 of 0.15 µM.
Take `COc1ccc(CCNC(=O)NC(=O)c2ccc(C(=O)N3CCOCC3)cc2)cc1`: the EC50 is over 50 µM.
With `COc1ccc(CCNC(=O)C(=O)Nc2cncc(Cl)c2)cc1` the figure was 5.9 µM; with `COc1ccc(CCN(C)C(=O)NC(=O)c2ccc(C(=O)c3ccccc3)cc2)cc1`, 8.7 µM; with `COc1ccc(CCNC(=O)C(=O)Nc2ccc(F)c(Cl)c2)cc1`, 0.74 µM.
Under `COc1ccc(CCNC(=O)N(C)C(=O)c2ccc(C(=O)c3ccccc3)cc2)cc1` stands 6.2 µM; under `COc1ccc(CCNC(=O)NC(=O)c2ccc(C(N)c3ccccc3)cc2)cc1` (stereo not given), 0.32 µM; under `COc1ccc(CCNC(=O)C(=O)N2CCCC2)cc1`, over 50 µM.
For `COc1ccc(CCNC(=O)C(=O)Nc2ccc(C)c(Cl)c2)cc1`, the EC50 turned out to be 0.6 µM.
`COc1ccc(CCNC(=O)NC(=O)c2cccc(Br)c2)cc1` registered an EC50 of over 50 µM.

For the origin of these results see ChEMBL document CHEMBL4251748, “Discovery of Cytochrome P450 4F11 Activated Inhibitors of Stearoyl Coenzyme A Desaturase” (J Med Chem, 2018).
